Where two headings read alike, the source gives them in different places. Where a SMILES comes first, the peptide text is derived from it. [ ]: non-standard residue; d: D form. The star is where a group is joined. Tle = CC(C)(C)[C@H](N)C(=O)O; Bz = O=C(c1ccccc1)*
Legend:
[1] = target: T1, Caspase-1 (Homo sapiens, UniProt P29466); test: Caspase-1 enzyme inhibition (Ki); format: biochemical
T1 sequence (P29466 120-297 limits assumed): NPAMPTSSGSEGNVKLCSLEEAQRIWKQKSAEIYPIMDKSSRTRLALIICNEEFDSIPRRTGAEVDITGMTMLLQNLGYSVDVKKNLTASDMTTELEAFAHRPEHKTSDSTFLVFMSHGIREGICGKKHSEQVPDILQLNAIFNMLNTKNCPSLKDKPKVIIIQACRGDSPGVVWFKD
T1 sequence (P29466 317-404 limits assumed): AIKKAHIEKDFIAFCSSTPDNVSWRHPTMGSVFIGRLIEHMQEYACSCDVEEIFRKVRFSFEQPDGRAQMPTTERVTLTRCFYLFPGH
Method: Ki values for test compounds with the various caspases were obtained by the method of Margolin et al. (J. Biol. Chem., 272 pp. 7223-7228 (1997)). Assays were performed in 10 mM Tris (Sigma Corp, St Louis Mo.) pH 7.5, 1 mM Dithiothreitol (DTT, Research Organic INC, Cleveland, Ohio) and 0.1% CHAPS (Pierce, Rockford Ill.) at 37° C. For caspase-3, a solution of 8% glycerol was added to the assay buffer to improve enzyme stability. A 65 μL aliquot of the assay buffer and 5 μL aliquot of the appropriate dilutions of inhibitor in DMSO where pipetted into a 96 well plate, treated with 10 μL of caspase, then diluted in assay buffer (0.5-40 nM active protein by active site titration). A control containing DMSO but no compound was included for each determination. The plates were then incubated for 15 minutes at 37° C., before addition of the appropriate substrate (20 μL, final concentration 1-4×KM, final assay volume 100 μL) to initiate the reaction. Reaction rates were measured at 37° C. either by following the time dependant increase in absorbance at 405 nm (for the pNA substrates) or in fluorescence (Ex 390, Em 460) (for the AMC substrates). The rates obtained were plotted against inhibitor concentration and the data fit to the Morrison tight-binding equation for competitive inhibitors (Morrison, J. F., Biochem. Biophys. Acta, 185 pp. 269-286 (1969)). The substrates used for the individual assays were as follows:
Caspase-1 Suc-YVAD-pNA (Bachem, King of Prussia, Pa.) (final concentration in the assay 80 μM),

[2] = system: Human Peripheral Blood Mononuclear Cells (PBMC), mature IL-1β; test: PBMC cell assay: IL-1β assay with human peripheral blood mononuclear cells; format: cell-based; settings: LPS-stimulated human PBMC, mature IL-1β in supernatant by ELISA
Source text: IL-1β Assay with a Mixed Population of Human Peripheral Blood Mononuclear Cells (PBMC) or Enriched Adherent Mononuclear Cells
Processing of pre-IL-1β by ICE can be measured in cell culture using a variety of cell sources. Human PBMC obtained from healthy donors provides a mixed population of lymphocyte subtypes and mononuclear cells that produce a spectrum of interleukins and cytokines in response to many classes of physiological stimulators. Adherent mononuclear cells from PBMC provides an enriched source of normal monocytes for selective studies of cytokine production by activated cells.
An initial dilution series of test compound in DMSO or ethanol is prepared, with a subsequent dilution into RPMI-10% FBS media (containing 2 mM L-glutamine, 10 mM HEPES, 50 U and 50 ug/ml pen/strep) respectively to yield drugs at 4× the final test concentration containing 0.4% DMSO or 0.4% ethanol. The final concentration of DMSO is 0.1% for all drug dilutions. A concentration titration which brackets the apparent Ki for a test compound determined in an ICE inhibition assay is generally used for the primary compound screen.
Generally 5-6 compound dilutions are tested and the cellular component of the assay is performed in duplicate, with duplicate ELISA determinations on each cell culture supernatant.
Buffy coat cells isolated from one pint human blood (yielding 40-45 ml final volume plasma plus cells) are diluted with media to 80 ml and LeukoPREP separation tubes (Becton Dickinson) are each overlaid with 10 ml of cell suspension. After 15 min centrifugation at 1500-1800×g, the plasma/media layer is aspirated and then the mononuclear cell layer is collected with a Pasteur pipette and transferred to a 15 ml conical centrifuge tube (Corning). Media is added to bring the volume to 15 ml, gently mix the cells by inversion and centrifuge at 300×g for 15 min. The PBMC pellet is resuspended in a small volume of media, the cells are counted and adjusted to 6×10^6 cells/ml.
For the cellular assay, 1.0 ml of the cell suspension is added to each well of a 24-well flat bottom tissue culture plate (Corning), 0.5 ml test compound dilution and 0.5 ml LPS solution (Sigma #L-3012; 20 ng/ml solution prepared in complete RPMI media; final LPS concentration 5 ng/ml). The 0.5 ml additions of test compound and LPS are usually sufficient to mix the contents of the wells. Three control mixtures are run per experiment, with either LPS alone, solvent vehicle control, and/or additional media to adjust the final culture volume to 2.0 ml. The cell cultures are incubated for 16-18 hr at 37° C. in the presence of 5% CO2.
At the end of the incubation period, cells are harvested and transferred to 15 ml conical centrifuge tubes. After centrifugation for 10 min at 200×g, supernatants are harvested and transferred to 1.5 ml Eppendorf tubes. It may be noted that the cell pellet may be utilized for a biochemical evaluation of pre-IL-1β and/or mature IL-1β content in cytosol extracts by Western blotting or ELISA with pre-IL-1β specific antisera.
PBMC are isolated and prepared as described above. Media (1.0 ml) is first added to wells followed by 0.5 ml of the PBMC suspension. After a one hour incubation, plates are gently shaken and nonadherent cells aspirated from each well. Wells are then gently washed three times with 1.0 ml of media and final resuspended in 1.0 ml media. The enrichment for adherent cells generally yields 2.5-3.0×10^5 cells per well. The addition of test compounds, LPS, cell incubation conditions and processing of supernatants proceeds as described above.
Quantikine kits (R&D Systems) may be used for the measurement of mature IL-1β. Assays are performed according to the manufacturer's directions. Mature IL-1β levels of about 1-3 ng/ml in both PBMC and adherent mononuclear cell positive controls are observed. […]

[3] = substrate Suc-YVAD-pNA 80 μM, 37° C., pH 7.5

Ki [1, 3]	Ki [1]	SMILES	IC50 [2]
< 10 nM		COc1c(Cl)cc(C(=O)N[C@H](C(=O)N2CCC[C@H]2C(=O)N[C@H](C=O)CC(=O)O)C(C)C)cc1Cl [Example 5al]	> 2000 nM
< 10 nM		CC(C)[C@H](NC(=O)c1ccc(C(C)(C)C)cc1)C(=O)N1CCC[C@H]1C(=O)N[C@H](C=O)CC(=O)O [Example 5am]	> 2000 nM
10 to 1000 nM		CCCN(CCC)S(=O)(=O)c1ccc(C(=O)N[C@H](C(=O)N2CCC[C@H]2C(=O)N[C@H](C=O)CC(=O)O)C(C)C)cc1 [Example 5ao]	> 2000 nM
10 to 1000 nM		CC(C)[C@H](NC(=O)c1csc(C2COc3ccccc3O2)n1)C(=O)N1CCC[C@H]1C(=O)N[C@H](C=O)CC(=O)O (stereo partly shown) [Example 5aq]	> 2000 nM
< 10 nM		Cc1nn(C)c2ncc(C(=O)N[C@H](C(=O)N3CCC[C@H]3C(=O)N[C@H](C=O)CC(=O)O)C(C)C)c(SC(C)C)c12 [Example 5ar]	> 2000 nM
< 10 nM		CC(C)[C@H](NC(=O)c1ccc2ncsc2c1)C(=O)N1CCC[C@H]1C(=O)N[C@H](C=O)CC(=O)O [Example 5as]	> 2000 nM
10 to 1000 nM		CCCc1c(C(=O)N[C@H](C(=O)N2CCC[C@H]2C(=O)N[C@H](C=O)CC(=O)O)C(C)C)cnn1-c1ccc(Cl)cc1 [Example 5at]	> 2000 nM
10 to 1000 nM		Cc1oc(-c2ccccc2)cc1C(=O)N[C@H](C(=O)N1CCC[C@H]1C(=O)N[C@H](C=O)CC(=O)O)C(C)C [Example 5au]	> 2000 nM
10 to 1000 nM		CC(C)[C@H](NC(=O)c1ccc(CSc2ccccn2)o1)C(=O)N1CCC[C@H]1C(=O)N[C@H](C=O)CC(=O)O [Example 5av]	> 2000 nM
< 10 nM		COc1cccc(Oc2ccc(OC)cc2C(=O)N[C@H](C(=O)N2CCC[C@H]2C(=O)N[C@H](C=O)CC(=O)O)C(C)C)c1 [Example 5aw]	1000 to 2000 nM
< 10 nM		CC(C)[C@H](NC(=O)c1ccccc1-c1ccc(C(F)(F)F)cc1)C(=O)N1CCC[C@H]1C(=O)N[C@H](C=O)CC(=O)O [Example 5ba]	1000 to 2000 nM
< 10 nM		CCCc1ccc(-c2ccc(C(=O)N[C@H](C(=O)N3CCC[C@H]3C(=O)N[C@H](C=O)CC(=O)O)C(C)C)cc2)cc1 [Example 5bd]	1000 to 2000 nM
10 to 1000 nM		Cc1ccc2ccccc2c1C(=O)N[C@H](C(=O)N1CCC[C@H]1C(=O)N[C@H](C=O)CC(=O)O)C(C)C [Example 5g]	1000 to 2000 nM
10 to 1000 nM	10 to 1000 nM	CC(C)Cc1ccc(C(C)C(=O)N[C@H](C(=O)N2CCC[C@H]2C(=O)N[C@H](C=O)CC(=O)O)C(C)C)cc1 (stereo partly shown) [Example 5v]	> 2000 nM
10 to 1000 nM		COc1c(Cl)cc(C(=O)N[C@H](C(=O)N2CCNC[C@H]2C(=O)N[C@H](C=O)CC(=O)O)C(C)C)cc1Cl [Example 15d]	1000 to 2000 nM
10 to 1000 nM		CC(C)[C@H](NC(=O)c1ccc(N)c(Cl)c1)C(=O)N1CCNC[C@H]1C(=O)N[C@H](C=O)CC(=O)O [Example 15e]	> 2000 nM
10 to 1000 nM		CC(C)[C@H](NC(=O)c1nccc2ccccc12)C(=O)N1CCNC[C@H]1C(=O)N[C@H](C=O)CC(=O)O [Example 15f]	> 2000 nM
10 to 1000 nM		C[C@H](NC(=O)c1nccc2ccccc12)C(=O)N1CCNC[C@H]1C(=O)N[C@H](C=O)CC(=O)O [Example 16a]	< 500 nM
10 to 1000 nM		CC(C)[C@H](NC(=O)c1nccc2ccccc12)C(=O)N1CCN(C)C[C@H]1C(=O)N[C@H](C=O)CC(=O)O [Example 17b]	1000 to 2000 nM
< 10 nM		COc1c(Cl)cc(C(=O)N[C@H](C(=O)N2CCN(C(C)=O)C[C@H]2C(=O)N[C@H](C=O)CC(=O)O)C(C)C)cc1Cl [Example 17c]	> 2000 nM
10 to 1000 nM		CC(=O)N1CCN(C(=O)[C@@H](NC(=O)c2ccc(N)c(Cl)c2)C(C)C)[C@H](C(=O)N[C@H](C=O)CC(=O)O)C1 [Example 17d]	> 2000 nM
10 to 1000 nM		CC(=O)N1CCN(C(=O)[C@@H](NC(=O)c2nccc3ccccc23)C(C)C)[C@H](C(=O)N[C@H](C=O)CC(=O)O)C1 [Example 17e]	500 to 1000 nM
10 to 1000 nM		CS(=O)(=O)CC[C@H](NC(=O)c1ccc(N)c(Cl)c1)C(=O)N1CCC[C@H]1C(=O)N[C@H](C=O)CC(=O)O [Example 20j]	> 2000 nM
> 1000 nM		CC(C)[C@H](N)C(=O)N1CC(c2ccccc2)[C@H]1C(=O)N[C@H](C=O)CC(=O)O (stereo partly shown) [Example 24b]	> 2000 nM
< 10 nM		CC(C)[C@H](NC(=O)c1ccccc1)C(=O)N1CC[C@H](C)[C@H]1C(=O)N[C@H](C=O)CC(=O)O [Example 26a]	1000 to 2000 nM
< 10 nM		Cc1cc(C(=O)N[C@H](C(=O)N2CC[C@H](C)[C@H]2C(=O)N[C@H](C=O)CC(=O)O)C(C)C)cc(C)c1O [Example 26b]	500 to 1000 nM
< 10 nM		C[C@H](NC(=O)[C@@H](NC(=O)c1ccccc1)C(C)(C)C)C(=O)N[C@H](C=O)CC(=O)O [Example 29m] (Bz-[Tle]-Ala-Asp-aldehyde)	500 to 1000 nM

Source: patent publication US20030232986A1, “Inhibitors of caspases” (Vertex Pharmaceuticals Incorporated, priority 1998, published 2003)
